The structures appear in SMILES notation.

The values that follow come from patent US20070231403A1, “Natural composite preservatives” (priority 2006, published 2007).

The nature of the experiment: DPPH radical scavenging (antioxidant) assay. It is filed as biochemical. As to conditions: vitamin C 1 mM. As for the experimental part:
The antioxidant activity of the natural composite preservatives was analyzed with DPPH (1,1-diphenyl-2-picrylhydrazyl). DPPH is a color radical generally used in determining radical scavenging capacity. Test samples were dissolved in 4 ml of distilled water or a solvent and mixed with 1 ml of 100 μM DPPH before incubation at room temperature for 30 min. Absorbance at 517 nm was read to calculate the amount of remaining DPPH (blank: distilled water or solvent only, control: DPPH alone in distilled water or solvent). Radical Scavenging Activity (RSA) was expressed as percentages of the test groups relative to the control, as calculated by the following equation 1.
Background: DPPH is a stable violet radical that fades when it is reduced.

For the compound `O=C1O[C@H]([C@@H](O)CO)C(O)=C1O` [vitamin C], the RSA amounted to 35%.
